Reference: patent publication US20240025906A1 (NEURON23, INC., priority 2022, published 2024)
pIC50, pKd: −log10 of the molar value. Where two headings read alike, the source gives them in different places.

Experiments:
[1] = test system: JAK1/TYK2 pSTAT5 (Tyr694/699) in THP-1 cell line; assay: IFNa-stimulated JAK1/TYK2 pSTAT5 (Tyr694/699) inhibition cellular assay, AlphaLISA; assay type: cell-based; details: Homo sapiens, THP-1 cells, AlphaLISA (Assay B)
Outline: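 The readout is AlphaLISA signal at 615 nm for phospho-STAT5 in THP-1 lysates after IFNa stimulation (added at 100 ng/mL, 30 min, 37 °C). Cells had compound for 1 h beforehand across eight 6-fold concentrations up to 10000 nM final. IC50s are 4PL fits with bottom and Hill slope constrained.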

[2] = target: T1, TYK2 JH2 (Homo sapiens, UniProt P29597); assay: TYK2 JH2 binding assay (KINOMEscan KdELECT competitive binding); details: TYK2 JH2 domain
T1 construct: purchased DiscoverX (KINOMEscan KdELECT service); host or cells: E. coli BL21-derived (T7 phage display) or HEK-293
Outline: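 The assay measures displacement of DNA- or phage-tagged TYK2 pseudokinase domain from an affinity resin; compound binding lowers the amount captured, read by qPCR. Incubation lasts 1 h at room temperature.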

[3] = IFNa-stimulated, read-out: Cellular_THP1_IFNa-pSTATS_TYK2
[4] = KINOMEscan KdELECT (Assay A), read-out: Biochemical TYK2_DiscoverX_JH2_BND_Kd
[5] = IFNa-stimulated pSTAT5 (Tyr694/699), read-out: Cellular_THP1_IFNa-pSTATS_TYK2
[6] = IFNa-stimulated, read-out: Cellular THP1_IFNa-pSTATS_IC50
[7] = KINOMEscan KdELECT (Assay A), read-out: Biochemical TYK2_JH2_Kd
[8] = DiscoverX KINOMEscan KdELECT (Assay A), read-out: Biochemical TYK2_DiscoverX_JH2_BND_Kd

T1 sequence (P29597 589-875 limits assumed): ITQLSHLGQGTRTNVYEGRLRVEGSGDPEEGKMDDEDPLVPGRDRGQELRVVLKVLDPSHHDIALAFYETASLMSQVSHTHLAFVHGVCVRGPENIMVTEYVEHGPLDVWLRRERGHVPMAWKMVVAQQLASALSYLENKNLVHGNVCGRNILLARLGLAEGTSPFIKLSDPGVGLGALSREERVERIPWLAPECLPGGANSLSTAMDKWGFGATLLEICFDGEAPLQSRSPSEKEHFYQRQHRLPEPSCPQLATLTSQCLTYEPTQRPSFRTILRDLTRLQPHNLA

Row | Structure (SMILES) | pIC50 [1, 3] | pKd [2, 4] | pKd [2, 8] | further results
1 | CNc1ncc(-c2nc3ccc(N4CCOCC4)cn3n2)c2cc(NC(=O)C3(C(F)F)CC3)ncc12 [Example 1072, 1-(difluoromethyl)-N-[8-(methylamino)-5-(6-morpholino-[1,2,4]triazolo[1,5-a]pyridin-2-yl)-2,7-naphthyridin-3-yl]cyclopropanecarboxamide] |  | ≥ 7.00 |  | pIC50 [1, 5]: ≥ 6.30
2 | CNc1ncc(-c2ccn(CC3CCS(=O)(=O)CC3)n2)c2cc(NC(=O)C3CC3)ncc12 [Example 153B, N-(5-(1-((1,1-dioxidotetrahydro-2H-thiopyran-4-yl)methyl)-1H-pyrazol-3-yl)-8-(methylamino)-2,7-naphthyridin-3-yl)cyclopropanecarboxamide] |  |  |  | pIC50 [1, 6]: < 6.30; pKd [2, 7]: ≥ 7.00
3 | CNc1ncc(-c2ccccc2)c2cc(NC(=O)C3(C)CC3)ncc12 [Example 101, 1-methyl-N-(8-(methylamino)-5-phenyl-2,7-naphthyridin-3-yl)cyclopropane-1-carboxamide] |  |  |  | pIC50 [1, 6]: < 6.30; pKd [2, 7]: ≥ 7.00
4 | CNc1ncc(C#Cc2ccc(N3CCOCC3)cc2)c2cc(NC(=O)[C@H]3C[C@H]3C(F)F)ncc12 (single isomer, unassigned) [Example 1075] |  | ≥ 7.00 |  | pIC50 [1, 5]: ≥ 6.30
5 | CNc1ncc(-c2cc3ccc(N4CCOCC4)cn3n2)c2cc(NC(=O)C3CC3)ncc12 [Example 796, N-(8-(methylamino)-5-(6-morpholinopyrazolo[1,5-a]pyridin-2-yl)-2,7-naphthyridin-3-yl)cyclopropanecarboxamide] | ≥ 6.30 | ≥ 7.00 |  | 
6 | CNc1ncc(-c2nc3ccc(N4CCOCC4)cc3s2)c2cc(NC(=O)C3CC3)ncc12 [Example 1094, N-(8-(methylamino)-5-(6-morpholinobenzo[d]thiazol-2-yl)-2,7-naphthyridin-3-yl)cyclopropanecarboxamide] |  | ≥ 7.00 |  | pIC50 [1, 5]: ≥ 6.30
7 | CNc1ncc(C#Cc2ccc3c(c2)OCC(C)O3)c2cc(NC(=O)C3CC3)ncc12 (centres unmarked) [Example 977, N-[8-(methylamino)-5-[2-(2-methyl-2,3-dihydro-1,4-benzodioxin-6-yl)ethynyl]-2,7-naphthyridin-3-yl]cyclopropanecarboxamide] | ≥ 6.30 | ≥ 7.00 |  | 
8 | CNc1ncc(/C=C/c2ccc3c(c2)OCC(COC)O3)c2cc(NC(=O)C3CC3)ncc12 (racemic) [Example 789, (E)-N-(5-(2-(2-(methoxymethyl)-2,3-dihydrobenzo[b][1,4]dioxin-6-yl)vinyl)-8-(methylamino)-2,7-naphthyridin-3-yl)cyclopropanecarboxamide] | ≥ 6.30 | ≥ 7.00 |  | 
9 | CNc1ncc(-c2cc3ccncc3o2)c2cc(Nc3cccc(OCCCCO)n3)ncc12 [Example 1103, 4-((6-((5-(furo[2,3-c]pyridin-2-yl)-8-(methylamino)-2,7-naphthyridin-3-yl)amino)pyridin-2-yl)oxy)butan-1-ol] |  | ≥ 7.00 |  | pIC50 [1, 5]: ≥ 6.30
10 | CNc1ncc(C#Cc2ccc3c(C)noc3c2)c2cc(NC(=O)C3CC3)ncc12 [Example 748, N-(8-(methylamino)-5-((3-methylbenzo[d]isoxazol-6-yl)ethynyl)-2,7-naphthyridin-3-yl)cyclopropanecarboxamide] | ≥ 6.30 | ≥ 7.00 |  | 
11 | CNc1ncc(-c2nc3cc(/C(C)=N/OC)ccc3o2)c2cc(NC(=O)C3CC3)ncc12 [Example 463, (E)-N-(5-(5-(1-(methoxyimino)ethyl)benzo[d]oxazol-2-yl)-8-(methylamino)-2,7-naphthyridin-3-yl)cyclopropanecarboxamide] | ≥ 6.30 |  | ≥ 7.00 | 
12 | CNc1ncc(-c2nc3cc(N4CCS(=O)(=O)CC4)ccc3o2)c2cc(NC(=O)C3CC3)ncc12 [Example 303, N-(5-(5-(1,1-dioxidothiomorpholino)benzo[d]oxazol-2-yl)-8-(methylamino)-2,7-naphthyridin-3-yl)cyclopropanecarboxamide] | ≥ 6.30 |  | ≥ 7.00 | 

The next lines start with results.

Row | pIC50 [1, 3] | pKd [2, 4] | pKd [2, 8] | Structure (SMILES) | further results
13 | ≥ 6.30 | ≥ 7.00 |  | CNc1ncc(-c2ccc(-c3cnnn3C)cc2)c2cc(NC(=O)C3CC3)ncc12 [Example 870, N-(5-(4-(1-methyl-1H-1,2,3-triazol-5-yl)phenyl)-8-(methylamino)-2,7-naphthyridin-3-yl)cyclopropanecarboxamide] | 
14 | ≥ 6.30 | ≥ 7.00 |  | CNc1ncc(C#Cc2ccc(Oc3nccn3C)cc2)c2cc(NC(=O)C3CC3)ncc12 [Example 966, N-(5-((4-((1-methyl-1H-imidazol-2-yl)oxy)phenyl)ethynyl)-8-(methylamino)-2,7-naphthyridin-3-yl)cyclopropanecarboxamide] | 
15 | ≥ 6.30 | ≥ 7.00 |  | CNc1ncc(C#Cc2ccc(Oc3ncn(C)n3)cc2)c2cc(NC(=O)C3CC3)ncc12 [Example 711, N-(5-((4-((1-methyl-1H-1,2,4-triazol-3-yl)oxy)phenyl)ethynyl)-8-(methylamino)-2,7-naphthyridin-3-yl)cyclopropanecarboxamide] | 
16 | ≥ 6.30 |  | ≥ 7.00 | CNc1ncc(-c2nc3cc(OC)ccc3o2)c2cc(Nc3ccccn3)ncc12 [Example 372, 4-(5-methoxybenzo[d]oxazol-2-yl)-N^1-methyl-N^6-(pyridin-2-yl)-2,7-naphthyridine-1,6-diamine] | 
17 | ≥ 6.30 |  | ≥ 7.00 | CNc1ncc(-c2nc3cc(N4CCOCC4)ccc3o2)c2cc(NC(=O)[C@H]3CC3(F)F)ncc12 [Example 422, (R)-2,2-difluoro-N-(8-(methylamino)-5-(5-morpholinobenzo[d]oxazol-2-y1)-2,7-naphthyridin-3-yl)cyclopropane-1-carboxamide] | 
18 | ≥ 6.30 |  | ≥ 7.00 | CCNc1ncc(-c2nc3ccc(OC)cn3n2)c2cc(NC(=O)C3CC3)ncc12 [Example 516, N-(8-(ethylamino)-5-(6-methoxy-[1,2,4]triazolo[1,5-a]pyridin-2-yl)-2,7-naphthyridin-3-yl)cyclopropanecarboxamide] | 
19 | ≥ 6.30 |  | ≥ 7.00 | CNc1ncc(-c2nc3ccc(N4CCOCC4)cn3n2)c2cc(NC(=O)C3(F)CC3)ncc12 [Example 527, 1-fluoro-N-(8-(methylamino)-5-(6-morpholino-[1,2,4]triazolo[1,5-a]pyridin-2-yl)-2,7-naphthyridin-3-yl)cyclopropane-1-carboxamide] | 
20 | ≥ 6.30 | ≥ 7.00 |  | CNc1ncc(C#Cc2ccc3cnn(C)c3c2)c2cc(NC(=O)C3CC3)ncc12 [Example 617] | 
21 | ≥ 6.30 |  | ≥ 7.00 | CNc1ncc(-c2nc3cc(-c4nc[nH]n4)ccc3o2)c2cc(NC(=O)C3CC3)ncc12 [Example 445, N-(5-(5-(1H-1,2,4-triazol-3-yl)benzo[d]oxazol-2-yl)-8-(methylamino)-2,7-naphthyridin-3-yl)cyclopropanecarboxamide] | 
22 | ≥ 6.30 | ≥ 7.00 |  | CNc1ncc(-c2nc3cc([C@]4(C)CCCO4)ccc3o2)c2cc(NC(=O)C3CC3)ncc12 [Example 948, (S)—N-(8-(methylamino)-5-(5-(2-methyltetrahydrofuran-2-yl)benzo[d]oxazol-2-yl)-2,7-naphthyridin-3-yl)cyclopropanecarboxamide] | 
23 | ≥ 6.30 | ≥ 7.00 |  | C=C(C)c1ccc2oc(-c3cnc(NC)c4cnc(NC(=O)C5CC5)cc34)nc2c1 [Example 931, N-(8-(methylamino)-5-(5-(prop-1-en-2-yl)benzo[d]oxazol-2-yl)-2,7-naphthyridin-3-yl)cyclopropanecarboxamide] | 
24 | ≥ 6.30 | ≥ 7.00 |  | CNc1ncc(C#Cc2ccc3c(c2)nnn3C)c2cc(NC(=O)C3CC3)ncc12 [Example 618, N-(5-((1-methyl-1H-benzo[d][1,2,3]triazol-5-yl)ethynyl)-8-(methylamino)-2,7-naphthyridin-3-yl)cyclopropanecarboxamide] | 
25 | ≥ 6.30 | ≥ 7.00 |  | CNc1ncc(C#Cc2ccc(OC3CN(C(C)=O)C3)cc2)c2cc(NC(=O)[C@H]3C[C@H]3C(F)F)ncc12 (single isomer, unassigned) [Example 776] | 
26 | ≥ 6.30 |  | ≥ 7.00 | CNc1ncc(-c2nc3cc(C#N)ccc3o2)c2cc(NC(=O)C3CC3)ncc12 [Example 210, N-(5-(5-cyanobenzo[d]oxazol-2-yl)-8-(methylamino)-2,7-naphthyridin-3-yl)cyclopropanecarboxamide] | 
27 | ≥ 6.30 |  | ≥ 7.00 | CNc1ncc(-c2nc3cc(N4CCO[C@@H](C)C4)ccc3o2)c2cc(NC(=O)C3CC3)ncc12 [Example 289, (S)—N-(8-(methylamino)-5-(5-(2-methylmorpholino)benzo[d]oxazol-2-yl)-2,7-naphthyridin-3-yl)cyclopropanecarboxamide] | 
28 | ≥ 6.30 |  | ≥ 7.00 | [2H]C([2H])([2H])Nc1ncc(-c2nc3cc(N4CCO[C@H](C)C4)ccc3o2)c2cc(NC(=O)[C@H]3C[C@H]3C)ncc12 [Example 441, (1S,2R)-2-methyl-N-(8-((methyl-d3)amino)-5-(5-((R)-2-methylmorpholino)benzo[d]oxazol-2-yl)-2,7-naphthyridin-3-yl)cyclopropane-1-carboxamide] | 
